According to patent US9339509B2, “Methods of use to orally and topically treat acne and other skin conditions by administering a 19-nor containing vitamin D analog with or without a retinoid” (Wisconsin Alumni Research Foundation, priority 2006, dated 2016):
“Also recorded” adds a separate entry of the source.

What was measured:
Rhino mouse [1] = experiment: Combination of oral atRA and topical 2MBisP in the Rhino mouse (comedone area, skin morphology); assay type: in vivo
Procedure: (§1) Animals and dose administration. Rhino mice 6-10 weeks old were dosed via the oral and/or topical route. In the majority of studies, the mice were dosed daily. In one topical study, the efficacy of daily versus intermittent (Monday/Wednesday/Friday) dosing was compared. The mice were weighed three times per week and doses were adjusted weekly based on body weight. The topical formulations were applied to the back of the animal in a maximum volume of 110 μL. The topical formulations were made by mixing the APIs with a topical carrier comprising 70 vol % propylene glycol and 30 vol % ethanol or 30 vol % propylene glycol and 70 vol % ethanol, as indicated. The topical vehicle control was the vehicle carrier solution matched to the formulation containing API and vehicle carrier.
(§2) The oral formulation was made by mixing the APIs with Wesson® soybean oil or NeoBee® oil. The oral dose was delivered to the back of the mouth of each mouse. Mice were sacrificed 4 hours after the final oral dose and 72 hours after the final topical dose. At sacrifice, the dorsal skin was collected for histological studies.
Comedolytic effect. The extent of the comedolytic effect (i.e., efficacy) was assessed by measuring the average area of the comedones, whereby the smaller the area, the larger the effect. The comedone area was determined by histological analysis of tissue sections based on a method developed in our lab (see FIG. 2). Skin was fixed overnight in 4% paraformaldehyde at 4 deg. C. with gentle agitation and dehydrated the next day into 100% methanol. Samples were embedded in paraffin and a total of nine 10 micron sections 150 microns apart were prepared from each Rhino mouse. Five of the nine sections were digitally imaged (6× magnification) for comedone analysis using Metamorph Imaging Software (trace function). The perimeter of each comedone on the images taken from the 5 sections was then traced using a Wacom Intuos 3 Graphics Tablet interfaced with the software. The number of pixels comprising the area of each individual comedone was obtained and transferred to an Excel spreadsheet, and the mean number of pixels per comedone was obtained for each Rhino mouse. For comedones that were completely healed (area=0) a pixel value approaching 0 (<10) was entered into the spreadsheet. The individual comedone area average for each mouse was then used to calculate the treatment group mean. Results in the figures are expressed in terms of mean±standard error of the mean. […]
Preparation of oral atRA dosing formulation. […] The concentration of atRA in that diluted stock solution was determined spectrophotometrically, whereby the molar extinction coefficient=45,200 and λmax=350. The purity of atRA was determined to be >99% by HPLC. […]

Rhino mouse [2] = experiment: Comedolytic effect of oral administration to the Rhino mouse (comedone area); assay type: in vivo
Excerpt: (§3) Rhino mice were used to topically and orally test the compounds and compositions of the invention. The Rhino mouse is a well-established animal model used to study the comedolytic effects of anti-acne agents including retinoids. (See Boulcier M et al., Experimental Models in Skin Pharmacology, 1990, In Pharmacological Reviews 42:127-15). Mirshahpanah and Maibach, 2007, Cutaneous and Ocular Toxicology 26:195-202). The Rhino mouse model was used to study the therapeutic potential of 2-Methylene-19-nor-20(S)-1α-hydroxy-bishomopregnacalciferol (2MBisP), 19-Nor-26,27-dimethylene-20(S)-2-methylene-1α,25-dihydroxyvitamin D3 (CAGE-3), NEL, 24R-2MD2, Vit-III (17-20E), 2MPregna, 2MP, 20R-2MbisP, 2MTrisP, FF-44, FF-55, HPBS, VD-03 and atRA.
as §1, §2
(§4) Comedolytic effect. The extent of the comedolytic effect (i.e., efficacy) was assessed by measuring the average area of the comedones, whereby the smaller the area, the larger the effect. The comedone area was determined by histological analysis of tissue sections based on a method developed in our lab (see FIG. 2). Skin was fixed overnight in 4% paraformaldehyde at 4 deg. C. with gentle agitation and dehydrated the next day into 100% methanol. Samples were embedded in paraffin and a total of nine 10 micron sections 150 microns apart were prepared from each Rhino mouse. Five of the nine sections were digitally imaged (6× magnification) for comedone analysis using Metamorph Imaging Software (trace function). The perimeter of each comedone on the images taken from the 5 sections was then traced using a Wacom Intuos 3 Graphics Tablet interfaced with the software. The number of pixels comprising the area of each individual comedone was obtained and transferred to an Excel spreadsheet, and the mean number of pixels per comedone was obtained for each Rhino mouse. For comedones that were completely healed (area=0) a pixel value approaching 0 (<10) was entered into the spreadsheet. The individual comedone area average for each mouse was then used to calculate the treatment group mean. Results in the figures are expressed in terms of mean±standard error of the mean.
Preparation of oral dosing solutions containing 2MBisP, CAGE-3, 24R-2MD2, VitIII (17-20E) and NEL. Separate concentrated stocks of 2MBisP, CAGE-3, 24R-2MD2, VitIII (17-20E) and NEL were obtained in ethanol. The concentration was determined spectrophotometrically using a molar extinction coefficient=42,000 and a λmax=252.7. […] The final dose was delivered in ≦50 μL of oil.
Preparation of oral atRA dosing formulation. A concentrated stock solution containing atRA was prepared in dichloromethane. The atRA concentrated stock solution was diluted into ethanol. The concentration of atRA in that diluted stock solution was determined spectrophotometrically, whereby the molar extinction coefficient=45,200 and λmax=350. The purity of atRA was determined to be >99% by HPLC. […]

Rhino mouse [3] = experiment: Comedolytic effect of topical application to the Rhino mouse (comedone area); assay type: in vivo; conditions: for comedone area (FIG. 5): 30 vol % ethanol/70% propylene glycol; for comedone area relative to vehicle-treated group (FIG. 11): 72 h after final dose
Excerpt: as §3, §1, §2, §4
Preparation of topical formulations containing 2MBisP, CAGE-3, 24R-2MD2, VitIII (17-20E), NEL, VD-03, 2MPregna, 2MP, 20R-2MBisP, 2MTrisP, FF-44, FF-55, and HPBS. Separate concentrated ethanolic stocks of 2MBisP, CAGE-3, 24R-2MD2, VitIII (17-20E) and NEL were diluted to a final concentration containing 70 vol % propylene glycol and 30 vol % ethanol or 30 vol % propylene glycol and 70 vol % ethanol as the excipient carrier system. The mixture was thoroughly mixed. The topical dosing formulation delivered the desired dosing amount of drug on a per kilogram body weight basis. A dose ranging from 100-110 μL in volume was administered to the back of the mouse. An average weight of 24 or 30 g/mouse was assumed in dose volume calculations. […]

[4] = tested on: retinoic acid receptors (RARs); conditions: Repa J J et al., 1993; cited from earlier work
[5] = daily topical 3 weeks, 70 vol % ethanol/30 vol % propylene glycol, 220 nmole/kgBW/day

C=C1[C@H](O)CC(=C/C=C2\CCC[C@]3(C)C([C@@H](C)CC)CC[C@@H]23)C[C@H]1O (stereo partly drawn) [2MBisP, 2-methylene-19-nor-20(S)-1α-hydroxy-bishomopregnacalciferol]
comedone area vs vehicle control group (FIG. 15) (Rhino mouse [1]; 2MBisP alone topically 21 days (0.22 μmole/kgBW/day, 30 vol % ethanol/70 vol % propylene glycol) with oral vehicle 24 days): lacked significant efficacy | skin morphology, H&E sections (FIG. 16) (Rhino mouse [1]; female Rhino mice, 2MBisP alone topically 0.22 μmole/kgBW/day, 30% ethanol/70% propylene glycol): did not alter skin morphology significantly | comedone area (FIG. 12) (Rhino mouse [2]; oral daily 24 days, 522 nmole/kgBW/day): reduction in the comedone area | response vs control in vivo at 0.022 µmol/kg (Rhino mouse [3]; Mus musculus, 504 h, daily topical ca. 3 weeks, 70 vol % ethanol/30 vol % propylene glycol, dose 22 nmol/kg, mean ± SEM, read-out: Comedone Area (% Vehicle)): 97 ± 9% | response vs control in vivo at 0.069 µmol/kg (Rhino mouse [3]; Mus musculus, 504 h, daily topical ca. 3 weeks, 70 vol % ethanol/30 vol % propylene glycol, dose 69 nmol/kg, mean ± SEM, read-out: Comedone Area (% Vehicle)): 127 ± 12% | response vs control in vivo at 0.217 µmol/kg (Rhino mouse [3]; Mus musculus, 504 h, daily topical ca. 3 weeks, 70 vol % ethanol/30 vol % propylene glycol, dose 217 nmol/kg, mean ± SEM, read-out: Comedone Area (% Vehicle)): 49 ± 3% | response vs control in vivo at 0.694 µmol/kg (Rhino mouse [3]; Mus musculus, 504 h, daily topical ca. 3 weeks, 70 vol % ethanol/30 vol % propylene glycol, dose 694 nmol/kg, mean ± SEM, read-out: Comedone Area (% Vehicle)): 35 ± 4% | response vs control in vivo at 2.187 µmol/kg (Rhino mouse [3]; Mus musculus, 504 h, daily topical ca. 3 weeks, 70 vol % ethanol/30 vol % propylene glycol, dose 2187 nmol/kg, mean ± SEM, read-out: Comedone Area (% Vehicle)): 32 ± 7% | comedone area (FIG. 5) (Rhino mouse [3]; daily topical 3 weeks, 220 nmole/kgBW/day): no effect | comedone area (FIG. 5) (Rhino mouse [3]; daily topical 3 weeks, 653 nmole/kgBW/day): near-maximal reduction in comedone area | comedone area (FIG. 7) (Rhino mouse [3]; daily topical 3 weeks, 70 vol % ethanol/30 vol % propylene glycol, 22 nmole/kgBW/day): no effect | comedone area relative to vehicle-treated group (FIG. 8, 9, 10) (Rhino mouse [3]; daily topical 3 weeks, 70 vol % ethanol/30 vol % propylene glycol, 217 nmole/kgBW/day): significant reduction in comedone area | comedone area (FIG. 7) (Rhino mouse [3]; [5]): significant reduction in comedone area | reduction in comedone area (FIG. 6) (Rhino mouse [3]; [5]): > 50% | comedone area (FIG. 6) (Rhino mouse [3]; daily topical 3 weeks, 70 vol % ethanol/30 vol % propylene glycol, 653 nmole/kgBW/day): greater reduction in comedone area as compared to the lower dose | comedone area relative to vehicle-treated group (FIG. 8) (Rhino mouse [3]; daily topical 3 weeks, 70 vol % ethanol/30 vol % propylene glycol, 694 nmole/kgBW/day): significant reduction in comedone area | comedone area relative to vehicle-treated group (FIG. 11) (Rhino mouse [3]; topical 217 nmole/kgBW daily (total of 22 doses), 70 vol % ethanol/30 vol % propylene glycol): significant reduction in comedone area | comedone area relative to vehicle-treated group (FIG. 11) (Rhino mouse [3]; topical 217 nmole/kgBW intermittently Monday, Wednesday, Friday (total of 10 doses), 70 vol % ethanol/30 vol % propylene glycol): significant reduction in comedone area | comedone area vs vehicle control (FIG. 3, FIG. 4) (Rhino mouse [3]; topical 3 weeks, 30 vol % ethanol/70 vol % propylene glycol, 5.4 μg/day (ca. 800 nmole/kgBW/day)): reduction in the comedone area; also recorded: reduced comedone area | potency in the reduction of comedone area relative to 20R-2MBisP (Rhino mouse [3]; topical, 70 vol % ethanol/30 vol % propylene glycol, more potent than the 20R compound): approximately ½

CC1=C(/C=C/C(C)=C/C=C/C(C)=C\C(=O)O)C(C)(C)CCC1 [13-cis retinoic acid, 13-cis-retinoic acid]
binding to the RARs [4]: does not bind

CC1=C(/C=C/C(C)=C/C=C/C(C)=C/C(=O)O)C(C)(C)CCC1 [atRA, all-trans-retinoic acid, reference compound]
comedone area vs vehicle control group (FIG. 15) (Rhino mouse [1]; atRA alone orally 24 days (830 nmole/kgBW/day) with topical vehicle 21 days): lacked significant efficacy | skin morphology vs vehicle control, H&E sections (FIG. 16) (Rhino mouse [1]; female Rhino mice, atRA alone orally 830 nmole/kgBW/day in soybean oil): did not alter skin morphology significantly | comedone size vs vehicle control (FIG. 2) (Rhino mouse [2]; oral, 3 weeks, 0.83 μmole/kgBW): insignificant reduction in comedone size | comedone size vs vehicle control (FIG. 2) (Rhino mouse [2]; oral, 3 weeks, 16.6 μmole/kgBW): maximal reduction in comedone size | comedone area, dose dependence (FIG. 2) (Rhino mouse [2]; oral, 3 weeks, various doses): dose-dependent reduction in comedone area
